Data from ChEMBL document CHEMBL3885861, “Open TG-GATES”.

Species: Rattus norvegicus
Experiment: Open TG-GATES - Regimen: Daily Repeat
Format: toxicity, organism-based, Sprague-Dawley
Set-up: regimen Daily Repeat, gender Male, age 6 weeks
Conditions: in vivo, po, route gavage; for TP / gamma-GTP / ALP / ALT / AST / BUN / CRE / DBIL / GLC / IP / K / LDH / Na / PL / RALB / TBIL / TC / TG: tissue Plasma; for APTT / Bas / Eos / Fbg / Hb / Ht / Lym / MCH / MCHC / MCV / Mono / Neu / PT / Plat / RBC / Ret / WBC: tissue Blood; for KIDNEY_L / KIDNEY_R / KIDNEY_TOTAL: tissue Kidney; for LIVER: tissue Liver
[1] = 0 mg/kg, […], dose level Control, time 28 day
[2] = 45 mg/kg, 72 h, dose level Low, time 3 day
[3] = 45 mg/kg, […], dose level Low, time 7 day
[4] = 45 mg/kg, […], dose level Low, time 14 day
[5] = 45 mg/kg, […], dose level Low, time 28 day

`CC(CCc1ccccc1)NCC(O)c1ccc(O)c(C(N)=O)c1` (centres undefined) [LABETALOL] was tested, and the TP [1] was 6.3 g/dL, the gamma-GTP [1] was 1 IU/L and the TERMINAL_BW [2] was 254.7 g. The APTT [2] was 16 s, the Bas [2] was 0% and the Eos [2] was 0.8%. It also gave a Fbg [2] of 279.4 mg/dL, a Hb [2] of 13.6 g/dL and a Ht [2] of 40.1%. It also gave a Lym [2] of 77%, an MCH [2] of 21.7 pg and an MCHC [2] of 33.9%. For the same compound, the MCV [2] was 64.1 fL, the Mono [2] was 3% and the Neu [2] was 18.6%. It also gave a PT [2] of 13 s, a Plat [2] of 116.6 x10_4/uL and an RBC [2] of 626.8 x10_4/ul. The Ret [2] was 6.8%, the WBC [2] was 105.9 x10_2/uL and the KIDNEY_L [2] was 1.1 g. The KIDNEY_R [2] was 1.1 g, the KIDNEY_TOTAL [2] was 2.2 g and the LIVER [2] was 11.6 g. For the same compound, the ALP [2] was 1517 IU/L, the ALT [2] was 42.4 IU/L and the AST [2] was 69.8 IU/L. It also gave a BUN [2] of 15 mg/dL, a CRE [2] of 0.2 mg/dL and a DBIL [2] of 0.014 mg/dL. For the same compound, the GLC [2] was 186.2 mg/dL, the IP [2] was 7.4 mg/dL and the K [2] was 4 meq/L. The LDH [2] was 64.2 IU/L, the Na [2] was 143.4 meq/L and the PL [2] was 160.8 mg/dL. It also gave an RALB [2] of 2.7 g/dL, a TBIL [2] of 0.026 mg/dL and a TC [2] of 87.6 mg/dL. For the same compound, the TG [2] was 116.6 mg/dL, the TP [2] was 5.9 g/dL and the gamma-GTP [2] was 1.2 IU/L. The TERMINAL_BW [3] was 288.7 g, the TERMINAL_BW [4] was 350.6 g and the TERMINAL_BW [5] was 411.6 g. The APTT [3] was 17.4 s, the Bas [3] was 0% and the Eos [3] was 1%. The Fbg [3] was 315.6 mg/dL, the Hb [3] was 14.1 g/dL and the Ht [3] was 40.9%. The Lym [3] was 73%, the MCH [3] was 21.4 pg and the MCHC [3] was 34.6%. The MCV [3] was 61.9 fL, the Mono [3] was 3.4% and the Neu [3] was 22.2%. The PT [3] was 12.8 s, the Plat [3] was 114.7 x10_4/uL and the RBC [3] was 661 x10_4/ul. For the same compound, the Ret [3] was 5.1%, the WBC [3] was 95.2 x10_2/uL and the APTT [4] was 17.7 s. It also gave a Bas [4] of 0%, an Eos [4] of 0.8% and a Fbg [4] of 291.6 mg/dL. The Hb [4] was 14.5 g/dL, the Ht [4] was 41.8% and the Lym [4] was 76.4%. For the same compound, the MCH [4] was 21.4 pg, the MCHC [4] was 34.7% and the MCV [4] was 61.5 fL. For the same compound, the Mono [4] was 2.8%, the Neu [4] was 19.6% and the PT [4] was 12.9 s. It also gave a Plat [4] of 104.8 x10_4/uL, an RBC [4] of 679.2 x10_4/ul and a Ret [4] of 4.4%. The WBC [4] was 86.7 x10_2/uL, the APTT [5] was 17.8 s and the Bas [5] was 0.4%. The Eos [5] was 1.4%, the Fbg [5] was 276.4 mg/dL and the Hb [5] was 15.5 g/dL. It also gave a Ht [5] of 44.6%, a Lym [5] of 75.6% and an MCH [5] of 19.7 pg. For the same compound, the MCHC [5] was 34.6%, the MCV [5] was 56.9 fL and the Mono [5] was 2.6%. The Neu [5] was 19.4%, the PT [5] was 13.1 s and the Plat [5] was 101.1 x10_4/uL. For the same compound, the RBC [5] was 785.2 x10_4/ul, the Ret [5] was 2.4% and the WBC [5] was 108 x10_2/uL. For the same compound, the KIDNEY_L [3] was 1.1 g, the KIDNEY_R [3] was 1.1 g and the KIDNEY_TOTAL [3] was 2.2 g. For the same compound, the KIDNEY_L [4] was 1.3 g, the KIDNEY_R [4] was 1.3 g and the KIDNEY_TOTAL [4] was 2.6 g. For the same compound, the KIDNEY_L [5] was 1.4 g, the KIDNEY_R [5] was 1.4 g and the KIDNEY_TOTAL [5] was 2.8 g. It also gave an LIVER [3] of 12.4 g, an LIVER [4] of 12.9 g and an LIVER [5] of 15.8 g. For the same compound, the ALP [3] was 1674.4 IU/L, the ALT [3] was 45 IU/L and the AST [3] was 71.4 IU/L. It also gave a BUN [3] of 15.4 mg/dL, a CRE [3] of 0.2 mg/dL and a DBIL [3] of 0.016 mg/dL. For the same compound, the GLC [3] was 192.2 mg/dL, the K [3] was 3.7 meq/L and the LDH [3] was 59.2 IU/L. For the same compound, the Na [3] was 143.2 meq/L, the PL [3] was 163.2 mg/dL and the RALB [3] was 2.7 g/dL. For the same compound, the TBIL [3] was 0.024 mg/dL, the TC [3] was 89.6 mg/dL and the TG [3] was 117.2 mg/dL. It also gave a TP [3] of 5.9 g/dL, a gamma-GTP [3] of 1.2 IU/L and an ALP [4] of 1374 IU/L. The ALT [4] was 46.4 IU/L, the AST [4] was 71.8 IU/L and the BUN [4] was 17 mg/dL. It also gave a CRE [4] of 0.2 mg/dL, a DBIL [4] of 0.014 mg/dL and a GLC [4] of 191.8 mg/dL. The IP [4] was 8 mg/dL, the K [4] was 3.8 meq/L and the LDH [4] was 57.2 IU/L. For the same compound, the Na [4] was 144.4 meq/L, the PL [4] was 155.4 mg/dL and the RALB [4] was 2.8 g/dL. The TBIL [4] was 0.028 mg/dL, the TC [4] was 76.8 mg/dL and the TG [4] was 131.2 mg/dL. The TP [4] was 6.1 g/dL, the gamma-GTP [4] was 1.2 IU/L and the ALP [5] was 1004.4 IU/L. It also gave an ALT [5] of 48.8 IU/L, an AST [5] of 70.4 IU/L and a BUN [5] of 16.6 mg/dL. For the same compound, the CRE [5] was 0.2 mg/dL, the DBIL [5] was 0.018 mg/dL and the GLC [5] was 179.2 mg/dL. For the same compound, the IP [5] was 6.8 mg/dL, the K [5] was 3.7 meq/L and the LDH [5] was 70.6 IU/L. For the same compound, the Na [5] was 143.2 meq/L, the PL [5] was 151.4 mg/dL and the RALB [5] was 2.9 g/dL. The TBIL [5] was 0.038 mg/dL, the TC [5] was 79.2 mg/dL and the TG [5] was 118.2 mg/dL.
